From publication PMC10259452 (Journal of Medicinal Chemistry, 2023)
Where two headings read alike, the source gives them in different places.

Experiments:
[1] = pH 7.4
[2] = human, microsomes, pH 7.4
[3] = rat, microsomes, pH 7.4
[4] = mouse, microsomes, pH 7.4
[5] = dog, microsomes, pH 7.4
[6] = microsomes
[7] = system: human peripheral blood mononuclear cells (PBMCs)
human GAL4-RORγ = target: T1, human GAL4-RORγ (Homo sapiens, UniProt P51449); assay: human GAL4-RORγ reporter assay; format: cell-based
T1 sequence (P51449 269-508 limits assumed): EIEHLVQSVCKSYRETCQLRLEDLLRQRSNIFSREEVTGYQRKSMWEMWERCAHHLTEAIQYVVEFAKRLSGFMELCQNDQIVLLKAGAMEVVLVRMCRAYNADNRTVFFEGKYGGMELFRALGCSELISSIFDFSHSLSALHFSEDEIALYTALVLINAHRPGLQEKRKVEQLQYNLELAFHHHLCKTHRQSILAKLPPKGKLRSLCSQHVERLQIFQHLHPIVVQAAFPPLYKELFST

SMILES	MDR1-MDCKII permeability in the A–B direction, grade in words (MDR1-MDCKII cells; MDCK-MDR1)	Caco-2 permeability in the A–B direction, grade in words (Caco-2 cells; Caco-2)	dependence of solubility on pH (in words) [1]	microsomal stability Clin [2]	microsomal stability Clin [3]	microsomal stability Clin [4]	microsomal stability Clin [5]	intrinsic clearance (Clin) grade in words [6]	recovery in Caco-2 permeability assay (Caco-2 cells; human, Caco-2, pH 7.4) [%]	reduction in IL17A+ cells compared to control (in words) [7]	also measured
O=C(Nc1sc2c(c1C(=O)N1CCC(CO)C1)CCCC2)c1cccnc1 (centres unmarked) [Compound 17, N-(3-(3-(Hydroxymethyl)pyrrolidine-1-carbonyl)-4,5,6,7-tetrahydrobenzo[b]thiophen-2-yl) Nicotinamide]	moderate	moderate	inversely proportional	46/23/7/11 μL/min/mg	46/23/7/11 μL/min/mg	46/23/7/11 μL/min/mg	46/23/7/11 μL/min/mg				active efflux / P-gp substrate in MDR1-MDCKII (MDR1-MDCKII cells; MDCK-MDR1): active efflux and are P-gp substrates; active efflux in Caco-2 (Caco-2 cells; Caco-2): active efflux
Cn1ccnc1SCC(=O)Nc1sc2c(c1C(=O)NCc1ccccc1)CCCC2 [Compound 16, N-Benzyl-2-(2-((1-methyl-1H-imidazole-2-yl)thio)acetamido)-4,5,6,7-tetrahydrobenzo[b]thiophene-3-carboxamide]			inversely proportional	2142/954/887/332 μL/min/mg	2142/954/887/332 μL/min/mg	2142/954/887/332 μL/min/mg	2142/954/887/332 μL/min/mg	high			
CCC1CCc2c(sc(NC(=O)c3ccnn3C)c2C(=O)Nc2ccccc2C)C1 (centres unmarked) [Compound 4, N-(6-Ethyl-3-{[(2-methylphenyl)amino]carbonyl}-4,5,6,7-tetrahydro-1-benzothien-2-yl)-1-methyl-1H-pyrazole-5-carboxamide]			not affected	11/22/29/24 μL/min/mg	11/22/29/24 μL/min/mg	11/22/29/24 μL/min/mg	11/22/29/24 μL/min/mg		< 80		
CN1CCN(CC(=O)Nc2sc3c(c2C(=O)NCc2ccccc2)CCCC3)CC1 [Compound 10, N-Benzyl-2-{[(4-methyl-1-piperazinyl) Acetyl]amino}-4,5,6,7-tetrahydro-1-benzothiophene-3-carboxamide]	moderate	moderate		319/214/115/132 μL/min/mg	319/214/115/132 μL/min/mg	319/214/115/132 μL/min/mg	319/214/115/132 μL/min/mg	moderate	< 80	greatest reduction	IL17A secretion from polarized PBMCs compared to the vehicle [7]: decreased; IL21 secretion from polarized PBMCs compared to the vehicle [7]: decreased; reduction in percentage of IL17A+ cells [7]: 40–60%; IC50 (human GAL4-RORγ): 0.82 nM
CSc1ncc(Cl)c(C(=O)Nc2sc3c(c2C(=O)NCc2ccccc2)CCCC3)n1 [Compound 2, N-(3-(Benzylcarbamoyl)-4,5,6,7-tetrahydrobenzo[b]thiophen-2-yl)-5-chloro-2-(methylthio) Pyrimidine-4-carboxamide]	moderate	moderate		127/126/267/115 μL/min/mg	127/126/267/115 μL/min/mg	127/126/267/115 μL/min/mg	127/126/267/115 μL/min/mg	moderate	< 80	greatest reduction	IL17A secretion from polarized PBMCs compared to the vehicle [7]: decreased; IL21 secretion from polarized PBMCs compared to the vehicle [7]: decreased; cell death / cell viability by flow cytometry [7]: no sign of cell death or decrease in cell viability; reduction in percentage of IL17A+ cells [7]: 40–60%; reduction of percentage of IL17A+ cells, multiple donors [7]: 20–40%; reduction of percentage of IL21+ cells, multiple donors [7]: 20–40%; IC50 (human GAL4-RORγ): 0.75 nM
O=C(CN1CCCCC1)Nc1sc2c(c1C(=O)NCc1ccccc1)CCCC2 [Compound 9, N-Benzyl-2-[(1-piperidinylacetyl)amino]-4,5,6,7-tetrahydro-1-benzothiophene-3-carboxamide]										greatest reduction	
CC1CCc2c(sc(NC(=O)c3ccccc3F)c2C(=O)N2CCN(C)CC2)C1 (centres unmarked) [Compound 6, 2-Fluoro-N-{6-methyl-3-[(4-methyl-1-piperazinyl)carbonyl]-4,5,6,7-tetrahydro-1-benzothien-2-yl} Benzamide]			inversely proportional	546/91/116/60 μL/min/mg	546/91/116/60 μL/min/mg	546/91/116/60 μL/min/mg	546/91/116/60 μL/min/mg	moderate			
C[C@@H]1CCN(C(=O)c2c(NC(=O)c3cccnc3)sc3c2CCCC3)[C@H](C)C1 [Compound 13, N-(3-((2R,4R)-2,4-Dimethylpiperidine-1-carbonyl)-4,5,6,7-tetrahydrobenzo[b]thiophen-2-yl) Nicotinamide]				414/404/507/369 μL/min/mg	414/404/507/369 μL/min/mg	414/404/507/369 μL/min/mg	414/404/507/369 μL/min/mg	moderate		greatest reduction	IL17A secretion from polarized PBMCs compared to the vehicle [7]: decreased; IL21 secretion from polarized PBMCs compared to the vehicle [7]: decreased; reduction in percentage of IL17A+ cells [7]: 40–60%
CSc1ncc(Cl)c(C(=O)Nc2sc3c(c2C(=O)NC2CCS(=O)(=O)C2)CCC(C)C3)n1 (centres unmarked) [Compound 3, 5-Chloro-N-(3-{[(1,1-dioxidotetrahydro-3-thienyl)amino]-carbonyl}-6-methyl-4,5,6,7-tetrahydro-1-benzothien-2-yl)-2-(methylthio)-4-pyrimidine-carboxamide]	moderate	low permeability		322/36/118/41 μL/min/mg	322/36/118/41 μL/min/mg	322/36/118/41 μL/min/mg	322/36/118/41 μL/min/mg	moderate			active efflux / P-gp substrate in MDR1-MDCKII (MDR1-MDCKII cells; MDCK-MDR1): active efflux and are P-gp substrates; effect of cyclosporine A on efflux ratio in MDR1-MDCKII cells (MDR1-MDCKII cells; MDCK-MDR1): completely blocked; active efflux in Caco-2 (Caco-2 cells; Caco-2): active efflux; effect of verapamil on efflux ratio in Caco-2 (Caco-2 cells; Caco-2): decreased partially; stability in acidic pH (in words) [1]: unstable; IC50 (human GAL4-RORγ): 2.19 nM
CC1CCN(CC(=O)Nc2sc3c(c2C(=O)NCc2ccccc2)CCCC3)CC1 [Compound 11, N-Benzyl-2-{[(4-methyl-1-piperidinyl) Acetyl]amino}-4,5,6,7-tetrahydro-1-benzothiophene-3-carboxamide]	low permeability	low permeability		2345/510/942/260 μL/min/mg	2345/510/942/260 μL/min/mg	2345/510/942/260 μL/min/mg	2345/510/942/260 μL/min/mg	high	< 80		MDR1-MDCKII permeability efflux cyclosporine A (MDR1-MDCKII cells; dog, MDCK-MDR1, pH 7.4): 0.7; Caco-2 permeability efflux verapamil (Caco-2 cells; human, Caco-2, pH 7.4): 1.2
CC1CCCN1C(=O)c1c(NC(=O)c2cccnc2)sc2c1CCCC2 (centres unmarked) [Compound 12, N-(3-(2-Methylpyrrolidine-1-carbonyl)-4,5,6,7-tetrahydro-benzo[b]thiophen-2-yl) Nicotinamide]	high	high permeability		71/67/97/53 μL/min/mg	71/67/97/53 μL/min/mg	71/67/97/53 μL/min/mg	71/67/97/53 μL/min/mg				
